Legend:
[1] = tested on: Puccinia recondita f. Sp. Tritici; test: Fungicidal activity, wheat leaf disc preventative (brown rust); type: in vivo; settings: foliar, 200 ppm in the applied formulation, wheat leaf segments cv. Kanzler, compared to untreated control, 7 to 9 days after application, read-out: disease control
How it was run: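 Preventative leaf-segment test: spray application of diluted formulated compound on wheat cv. Kanzler, spore inoculation after 1 day. Percent control relative to untreated segments rated 7 to 9 days post-application, with incubation at 19° C, 75% relative humidity, 12 h photoperiod.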

[2] = tested on: Puccinia recondita f. Sp. Tritici; test: Fungicidal activity, wheat leaf disc curative (brown rust); type: in vivo; settings: foliar, 200 ppm in the applied formulation, wheat leaf segments cv. Kanzler, curative (applied 1 day after inoculation), compared to untreated control, 6 to 8 days after application, read-out: disease control
How it was run: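 Curative leaf-segment test, cv. Kanzler: spore inoculation, dark storage 19° C/75% RH, compound spray 1 day post-inoculation. Then 12 h light/12 h dark, 19° C, 75% RH. Read-out: % disease control vs untreated check, 6–8 d after application.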

Phakopsora pachyrhizi = test: Fungicidal activity, soybean leaf disc preventative (Asian soybean rust); type: in vivo; settings: foliar, 200 ppm in the applied formulation, soybean leaf disks, compared to untreated control, 12 to 14 days after application, read-out: disease control
How it was run: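 Read-out is percent disease control relative to untreated check discs, assessed once untreated discs show adequate disease, 12 to 14 days after application. Compounds, tested at 200 ppm in the applied formulation, are sprayed onto soybean leaf discs one day before inoculation with a spore suspension.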

[3] = tested on: Glomerella lacenarium (Colletotrichum lacenarium); test: Fungicidal activity, liquid culture, cucumber preventative (anthracnose); type: cell-based; settings: 20 ppm in the applied formulation, liquid culture in PDB, inhibition of growth measured photometrically 3 to 4 days after application, compared to untreated control, read-out: disease control
How it was run: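 PDB broth seeded with cryo-stored conidia, added onto compound (DMSO solution) in 96-well plates; 24° C.; photometric growth read at 3–4 d post-application; % inhibition vs untreated check.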

CN(Cc1ccc(-c2noc(C(F)(F)F)n2)s1)C(=O)C1CC1(F)F (stereo not shown) [Compound 5.24, 2,2-difluoro-N-methyl-N-[[5-[5-(trifluoromethyl)-1,2,4-oxadiazol-3-yl]-2-thienyl]methyl]cyclopropanecarboxamide]
≥ 80%: pest or weed control at 200 ppm [1] | pest or weed control at 200 ppm [2] | pest or weed control at 200 ppm (Phakopsora pachyrhizi) | inhibition of growth at 20 ppm [3]

COCCCC(=O)NCc1ccc(-c2noc(C(F)(F)F)n2)s1 [Compound 2.10, 4-methoxy-N-[[5-[5-(trifluoromethyl)-1,2,4-oxadiazol-3-yl]-2-thienyl]methyl]butanamide]
≥ 80%: pest or weed control at 200 ppm [1] | pest or weed control at 200 ppm [2] | pest or weed control at 200 ppm (Phakopsora pachyrhizi) | inhibition of growth at 20 ppm [3]

CCN(Cc1ccc(-c2noc(C(F)(F)F)n2)s1)C(=O)NC [Compound 4.5, 1-ethyl-3-methyl-1-[[5-[5-(trifluoromethyl)-1,2,4-oxadiazol-3-yl]-2-thienyl]methyl]urea]
≥ 80%: pest or weed control at 200 ppm [1] | pest or weed control at 200 ppm [2] | pest or weed control at 200 ppm (Phakopsora pachyrhizi) | inhibition of growth at 20 ppm [3]

CCCC(=O)N(Cc1ccc(-c2noc(C(F)(F)F)n2)s1)OC [Compound 1.21, N-methoxy-N-[[5-[5-(trifluoromethyl)-1,2,4-oxadiazol-3-yl]-2-thienyl]methyl]butanamide]
≥ 80%: pest or weed control at 200 ppm [1] | pest or weed control at 200 ppm [2] | pest or weed control at 200 ppm (Phakopsora pachyrhizi) | inhibition of growth at 20 ppm [3]

CC1CC1C(=O)NCc1ccc(-c2noc(C(F)(F)F)n2)s1 (stereo not shown) [Compound 3.5, 2-methyl-N-[[5-[5-(trifluoromethyl)-1,2,4-oxadiazol-3-yl]-2-thienyl]methyl]cyclopropanecarboxamide]
≥ 80%: pest or weed control at 200 ppm [1] | pest or weed control at 200 ppm [2] | pest or weed control at 200 ppm (Phakopsora pachyrhizi) | inhibition of growth at 20 ppm [3]

COCCC(=O)N(Cc1ccc(-c2noc(C(F)(F)F)n2)s1)C1CC1 [Compound 4.55, N-cyclopropyl-3-methoxy-N-[[5-[5-(trifluoromethyl)-1,2,4-oxadiazol-3-yl]-2-thienyl]methyl]propanamide]
≥ 80%: pest or weed control at 200 ppm [1] | pest or weed control at 200 ppm [2] | pest or weed control at 200 ppm (Phakopsora pachyrhizi) | inhibition of growth at 20 ppm [3]

C=CCN(C)C(=O)N(Cc1ccc(-c2noc(C(F)(F)F)n2)s1)C1CC1 [Compound 4.88, 1-allyl-3-cyclopropyl-1-methyl-3-[[5-[5-(trifluoromethyl)-1,2,4-oxadiazol-3-yl]-2-thienyl]methyl]urea]
≥ 80%: pest or weed control at 200 ppm [1] | pest or weed control at 200 ppm [2] | pest or weed control at 200 ppm (Phakopsora pachyrhizi) | inhibition of growth at 20 ppm [3]

O=C(NC1CC1)N(Cc1ccc(-c2noc(C(F)(F)F)n2)s1)OCC(F)F [Compound 5.65, 3-cyclopropyl-1-(2,2-difluoroethoxy)-1-[[5-[5-(trifluoromethyl)-1,2,4-oxadiazol-3-yl]-2-thienyl]methyl]urea]
≥ 80%: pest or weed control at 200 ppm [1] | pest or weed control at 200 ppm [2] | pest or weed control at 200 ppm (Phakopsora pachyrhizi) | inhibition of growth at 20 ppm [3]

COCCC(=O)N(Cc1ccc(-c2noc(C(F)(F)F)n2)s1)OCC(F)F [Compound 4.64, N-(2,2-difluoroethoxy)-3-methoxy-N-[[5-[5-(trifluoromethyl)-1,2,4-oxadiazol-3-yl]-2-thienyl]methyl]propanamide]
≥ 80%: pest or weed control at 200 ppm [1] | pest or weed control at 200 ppm [2] | pest or weed control at 200 ppm (Phakopsora pachyrhizi) | inhibition of growth at 20 ppm [3]

COCC(=O)N(Cc1ccc(-c2noc(C(F)(F)F)n2)s1)C1CC1 [Compound 4.52, N-cyclopropyl-2-methoxy-N-[[5-[5-(trifluoromethyl)-1,2,4-oxadiazol-3-yl]-2-thienyl]methyl]acetamide]
≥ 80%: pest or weed control at 200 ppm [1] | pest or weed control at 200 ppm [2] | pest or weed control at 200 ppm (Phakopsora pachyrhizi) | inhibition of growth at 20 ppm [3]
